Patent publication US6440400B1, “Trimethylcylohexane derivatives and melanin-formation inhibitors and perfumeholding agents with the use of the same” (Takasago International Corporation, priority 1998, dated 2002)

Experiments:
[1] = system: B-16 melanoma cells; assay: Melanin production inhibiting effect on chromatophore (visual whiteness of cell pellets); type: cell-based; parameters: key: −: Equal to solvent control (black); +: Slightly different from solvent control (dark gray); ++: Markedly different from solvent control (pale gray); +++: No coloring of cells (white); conditions: 3 days culture with sample
Description: A plastic culture flask (25 cm^2) was inoculated with 8×10^4 B-16 melanoma cells, which were incubated in a DMEN medium (Nippon Suisan Kaisha, Ltd.) containing 10% serum in the presence of 5% CO2 at 37° C. After 3 days, a test sample diluted with EtOH was added to the medium at a concentration of 0.4, 0.8, 1.6, 3.1 and 6.2 ppm and the culture was continued for further 3 days.
After completion of the culture to remove the culture followed by washing with a phosphate buffer (hereinafter referred to as PBS), the cells were removed from the flask using a medium containing trypsin and EDTA (ethylenediamine tetraacetic acid) and the cells were recovered from the cell suspension by centrifugation.
The cells thus obtained were washed once with PBS and then the pellets were evaluated visually for their whiteness.
Similarly to Example 16, the melanin production inhibiting effects of arbutin, tetrahydroionol, β-ionone, dihydro-β-ionone and the novel compounds of the invention (1′i, 1″i, 1^4′i) on a chromatophore were determined.

[2] = Patch test of 2% lanolin paste on upper arm of panelists; type: in vivo, human; conditions: 2% by weight in lanolin paste, 24 h patch on upper arm, 30 panelists, observed at removal and 24 h later

Number of panelists exhibiting abnormality [2]	Number ot panelists exhibiting no abnormality [2]	Structure (SMILES)	whiteness of cell pellets, evaluated visually ([1]; 1.6 ppm)	whiteness of cell pellets, evaluated visually ([1]; 3.1 ppm)	whiteness of cell pellets, evaluated visually ([1]; 6.2 ppm)	whiteness of cell pellets, evaluated visually ([1]; 0.4 ppm)	whiteness of cell pellets, evaluated visually ([1]; 0.8 ppm)
		CCC(O)CCC1C(C)CCCC1(C)C (stereo not drawn) [1^4′b]	+	++	+++		
		CCCC(O)CCC1C(C)CCCC1(C)C (stereo not drawn) [1^4′c]	+	++	+++		
		CC(C)C(O)CCC1C(C)CCCC1(C)C (stereo not drawn) [1^4′e]	+	++	+++		
		CC(C)CC(O)CCC1C(C)CCCC1(C)C (stereo not drawn) [1^4′g]	++	+++	+++		
		CCC(=O)C=CC1C(C)CCCC1(C)C (stereo not drawn) [1′b]	+	++	+++		
		CCCC(=O)C=CC1C(C)CCCC1(C)C (stereo not drawn) [1′c]	+	++	+++		
		CC(C)CC(=O)C=CC1C(C)CCCC1(C)C (stereo not drawn) [1′g]	+	++	+++		
		CC1CCCC(C)(C)C1C=CC(=O)C(C)(C)C (stereo not drawn) [1′h]	+	++	+++		
		CCCCCC(=O)C(C)=CC1C(C)CCCC1(C)C (stereo not drawn) [1′x, 1-(2′,2′,6′-Trimethylcyclohexan-1′-yl)-2-methyloctan-1-en-3-one]	+	++	+++		
		CCC(O)C=CC1C(C)CCCC1(C)C (stereo not drawn) [1″b]	+	++	+++		
		CCCC(O)C=CC1C(C)CCCC1(C)C (stereo not drawn) [1″c]	++	+++	+++		
		CC(C)CC(O)C=CC1C(C)CCCC1(C)C (stereo not drawn) [1″g]	+++	+++	+++		
		CCC(O)C(C)=CC1C(C)CCCC1(C)C (stereo not drawn) [1″u]	+	++	+++		
		OC[C@H]1O[C@@H](Oc2ccc(O)cc2)[C@H](O)[C@@H](O)[C@@H]1O [ARBUTIN, arbutin, reference compound]	−	−	+	−	−
		CCCCCC(O)CCC1C(C)CCCC1(C)C (stereo not drawn) [Compound 1^4′i, 1-(2′,2′,6′-Trimethylcyclohexan-1′-yl)-octan-3-ol]	++	+++	+++	−	−
		CCCCCCCC(O)CCC1C(C)CCCC1(C)C (stereo not drawn) [Compound 1^4′m, 1-(2′,2′,6′-Trimethylcyclohexan-1′-yl)-decan-3-ol]	+	+	+		
0	30	CCCCCC(=O)C=CC1C(C)CCCC1(C)C (stereo not drawn) [Compound 1′i, 1-(2′,2′,6′-Trimethylcyclohexan-1′-yl)octan-1-en-3-one]	+++	+++	+++	−	+
		CC(C)CCCC(=O)C=CC1C(C)CCCC1(C)C (stereo not drawn) [Compound 1′k, 1-(2′,2′,6′-Trimethylcyclohexan-1′-yl)-7-methyloctan-1-en-3-one]	++	+++	+++		
		CC(C)=CCCC(=O)C=CC1C(C)CCCC1(C)C (stereo not drawn) [Compound 1′l, 1-(2′,2′,6′-Trimethylcyclohexan-1′-yl)-7-methyloctan-1,6-dien-3-one]	+	+++	+++		
		CCCCCCCC(=O)C=CC1C(C)CCCC1(C)C (stereo not drawn) [Compound 1′m, 1-(2′,2′,6′-Trimethylcyclohexan-1′-yl)-decan-1-en-3-one]	+	+	+++		
0	30	CCCCCC(O)C=CC1C(C)CCCC1(C)C (stereo not drawn) [Compound 1″i, 1-(2′,2′,6′-trimethylcyclohexan-1′-yl)octan-1-en-3-ol]	+++	+++	+++	−	+
		CC(C)CCCC(O)C=CC1C(C)CCCC1(C)C (stereo not drawn) [Compound 1″k, 1-(2′,2′,6′-Trimethylcyclohexan-1′-yl)-7-methyloctan-1-en-3-ol]	+++	+++	+++		
		CC(C)=CCCC(O)C=CC1C(C)CCCC1(C)C (stereo not drawn) [Compound 1″l, 1-(2′,2′,6′-Trimethylcyclohexan-1′-yl)-7-methyloctan-1,6-dien-3-ol]	+++	+++	+++		
		CCCCCCCC(O)C=CC1C(C)CCCC1(C)C (stereo not drawn) [Compound 1″m, 1-(2′,2′,6′-Trimethylcyclohexan-1′-yl)-decan-1-en-3-ol]	+	+	+++		
		CCCCCC(O)C(C)=CC1C(C)CCCC1(C)C (stereo not drawn) [Compound 1″x, 1-(2′,2′,6′-Trimethylcyclohexan-1′-yl)-2-methyloctan-1-en-3-ol]	+	++	+++		
		CC(=O)CCC1=C(C)CCCC1(C)C [Dihydro-β-ionone, dihydro-β-ionone, reference compound]	−	+	++	−	−
		CC(O)CCC1C(C)CCCC1(C)C (stereo not drawn) [Tetrahydroionol, tetrahydroionol, reference compound]	−	+	++	−	−
		CC(=O)/C=C/C1=C(C)CCCC1(C)C [β-Ionone, β-ionone, reference compound]	−	+	++	−	−
